Reference: patent US20130116209A1, “METHOD FOR SELECTION OF CHEMOTHERAPEUTIC AGENTS FOR ADENOCARCINOMA CANCER” (VENTANA MEDICAL SYSTEMS, INC., priority 2011, published 2013)

Columns and labels:
[1] = system: pancreatic adenocarcinoma; assay: Retrospective RTOG 9704 study: tumor hENT1 expression (IHC, SP120 antibody) versus overall survival after adjuvant gemcitabine or 5FU; type: in vivo, human; settings: for OS of Low hENT1 subgroup compared to High hENT1 subgroup / OS across High, Mid and No hENT1 subgroups: Method Six; for OS across High, Mid and No hENT1 subgroups: three subgroups (FIG. 2 score sheet), FIGS. 33-34
Protocol: The RTOG 9704 study and its results are further described in Regine, W. F. et al. (2008) JAMA 299(9):1019-1026; Regine, W. F. et al. (2011) Ann. Surg. Oncol. 18:1319-1326.
Formalin-fixed, paraffin-embedded (FFPE) specimens have been retrieved from tissue repositories. The specimens were obtained from patients prior to adjuvant therapy. Tissue was processed into tissue microarrays (TMA) at the RTOG Biospecimen Resource center and IHC staining was performed in a central laboratory (Ventana Medical Systems). Stained slides were interpreted by pathologists blind to study outcomes.
Samples have been centralized within the RTOG Biospecimen Resource facility. Tissue micro arrays (TMA) were also constructed in the RTOG Biospecimen Resource facility. Three cores from each tumor specimen were arrayed on three separate TMAs. A total of 220 cases were arrayed on the TMAs.
Slides from TMAs were prepared and forwarded to the core pathology laboratory (Ventana Medical Systems), and stained by SP120 rabbit monoclonal antibody for detection of hENT1 protein according to established methods. The following parameters were recorded for each specimen based on scoring by a pathologist blinded to the patient's clinical characteristics and outcome: • Intensity of staining (e.g. 0=no stain, 1+=weakly positive, 2+=moderately positive, 3+=strongly positive) • Percentage of tumor cells with staining at each intensity level (% of tumor tissue specifically excluding non-malignant cells/regions) • Pattern of staining (segmented or diffuse) • Cellular compartment (membrane or cytoplasm).

pancreatic cancer = settings: Stage III/IV disease, gemcitabine monotherapy, unresectable pancreatic cancer; cited from earlier work
[2] = FIG. 3 algorithm (50% of tumor with membrane staining at 10×), FIGS. 4-5
[3] = FIG. 6 algorithm (PP at 2×, 4×, 10× and negative tumor <=50%), FIGS. 7-8

Nc1ccn([C@@H]2O[C@H](CO)[C@@H](O)C2(F)F)c(=O)n1 [gemcitabine]
OS of No hENT1 subgroup compared to Low and High hENT1 subgroups ([1]; Method Five, FIG. 19): shorter OS
OS of combined Low and High hENT1 subgroup compared to No hENT1 subgroup ([1]; Method Five, FIG. 20): longer OS
OS of negative hENT1 subgroup compared to Weak, Moderate or Strong subgroups ([1]; Method Four, FIG. 31): shorter OS
OS of H-score<=20 subgroup compared to H-score 20-80 and >=80 subgroups ([1]; Method One, FIG. 23): shorter OS
OS of H-score>=50 patients compared to H-score <50 patients ([1]; Method One, FIG. 24): longer OS
OS of Low hENT1 subgroup compared to High hENT1 subgroup [1, 2]: shorter OS
OS of Low hENT1 subgroup compared to High hENT1 subgroup [1, 3]: shorter OS
OS across High, Mid and No hENT1 subgroups [1]: No hENT1 expression exhibited the shortest OS followed by the Mid hENT1 subgroup and the High hENT1 subgroup had the longest OS
OS of negative hENT1 subgroup compared to Segmental or Diffuse subgroups ([1]; Method Three, FIG. 27): shorter OS
OS of patients with detectable hENT1 (S or D) compared to no hENT1 expression ([1]; Method Three, FIG. 28): longer OS
OS of subgroup N, 20× or 40× compared to subgroup PP at 2×, 4× or 10× ([1]; Method Two (magnification), FIGS. 15-16): shorter OS
median OS (pancreatic cancer): 5-7 months

O=c1[nH]cc(F)c(=O)[nH]1 [5FU, 5-Fluorouracil]
median OS as hENT1 expression increases from No to Low to High ([1]; Method Five (percent negative staining), FIG. 18): do not demonstrate an improvement in OS
median OS as hENT1 expression increases from Negative to Weak to Moderate to Strong ([1]; Method Four (staining intensity), FIG. 30): do not demonstrate an improvement in OS
median OS as hENT1 expression (H-score subgroup) increases ([1]; Method One (H-score), FIG. 22): do not demonstrate an improvement in OS
OS of Low hENT1 subgroup compared to High hENT1 subgroup [1, 2]: do not demonstrate improvement in OS
OS of Low hENT1 subgroup compared to High hENT1 subgroup [1, 3]: do not demonstrate improvement in OS
OS across High, Mid and No hENT1 subgroups [1]: do not demonstrate improvement in OS
median OS as hENT1 expression increases from Negative to Segmental to Diffuse ([1]; Method Three (staining pattern), FIG. 26): do not demonstrate an improvement in OS
